Assays:
[1] = Recovery of steroid glycoside and free steroid from intestinal contents and tissues after intragastric administration; format: in vivo, Sprague-Dawley rats; conditions: rat, in vivo, po
Procedure: Male, Sprague-Dawley rats (ca 250 g) were maintained on laboratory rat chow and water ad lib. These rats were fasted overnight (16 hr.) prior to administration of glucoside or free steroid. Water bottles were removed from the cages at least 30 min prior to drug administration. Prednisolone glucoside, 2, (7.5 mg) or dexamethasone glucoside, 1, (7.5 mg) was administered by gastric intubation as a solution (0.5 mL) of water/95% ethanol (3:1). Prednisolone, 4, (5.25 mg) or dexamethasone, 3, (5.1 mg) was administered as a solution (0.5 mL) of water/95% ethanol (1:1). After the appropriate interval of time -3, 4, 5 or 6 hr.- the animals were sacrificed by carbon dioxide anesthesia followed by thoractomy. The small intestine and cecum were removed and cut into segments. Contents were separated from the tissues by rinsing the segments with cold, 0.9% saline (5.0 mL). The contents were immediately diluted to 30 mL with methanol. The tissues were suspended in 0.01 M KH2P04 (5.0 mL). Then an internal standard, either prednisolone, 4, or dexamethasone, 3, depending on the experimental steroid, was added to all the samples. Both the contents and tissues were then homogenized with a Polytron Homogenizer (Brinkman Inst. Co.) at med. speed for 1-2 min. The contents were then diluted to 40 mL total volume with methanol. The tissues were diluted to 25 mL total volume with methanol. All the samples were centrifuged (5,000 g, 15 min) and then the supernatant solutions were passed through membrane filters (0.45 micrometers, Versapor 800). The samples (1.4 mL) were then diluted with 0.01 M KH2PO4 (0.6 mL) and 20 microliters of the resulting solution injected directly onto the HPLC column for analysis.

[2] = Rate of hydrolysis in homogenized cecal contents; conditions: for Sp. act. / Tot. act.: cecal contents, 37 C; for hydrolysis by cecal contents, comparison in words: cecal content homogenates
Excerpt: (§1) (The entire small intestine was divided into two, equal length segments to give PSI and DSI.) Gastrointestinal contents were obtained from male, Sprague-Dawley rats (300-400 g) which had been maintained on a stock diet (Purina rat chow) and water ad libitum. The intestinal contents of each section were pooled from four animals for each assay. […] Following removal, the contents were quickly weighed, then diluted to 100 milliliters (stomach, PSI, and DSI) or 200 milliliters (cecum) with cold 0.01 M phosphate buffer, pH 7.0. […] Homogenates were then stored on ice (ca 30 min). […] The reaction was run at 37 °C in a shaking water bath. The reaction was stopped after 10, 20, or 30 min by addition of 0.2 N NaOH (0.25 milliliters).
(§2) Stomach and PSI contents were diluted to 50 mL with 0.01 M phosphate buffer, pH 7.0, DSI contents to 25 mL, and cecal contents to 200 mL, prior to homogenization. The homogenates (2.1 mL of stomach, PSI, and DSI and 1.7 mL of cecum) were added to the appropriate substrate solution (0.01 M phosphate buffer, pH 7.0) to give 1.0 mM substrate in a total volume of 2.5 mL. At various times up to 30 min, aliquots (0.3 mL) were removed and quenched with MeOH (4.7 mL). After centrifugation (5,000 g, 10 min), the samples were diluted (1:1) with 0.01 M KH2PO4 and 20 microliters of the resulting solution was injected directly onto the HPLC column for analysis.

[3] = Rate of hydrolysis in homogenized distal small intestine contents; conditions: for Sp. act. / Tot. act.: DSI contents, 37 C
Excerpt: as §1, §2

[4] = Rate of hydrolysis in homogenized stomach contents; conditions: 37 C
[5] = KM(app) and Vmax determinations (Eadie-Hofstee plots); format: in vitro ADME, rat; conditions: 15 min, 37 C
Procedure: KM(app) and VMax Determinations. The KM(app)-Vmax for the hydrolysis of p-NP-glc and p-NP-gal were determined using pooled cecal homogenates (200 mL) as described above. A range of substrate (56-1000 micromolar; final volume 2.25 mL) concentrations, spanning their apparent KM, was used for each reaction. The amount of cecal homogenate used was 0.04 mL. Velocities were obtained, in duplicate, at 37 °C in a shaking water bath and the reaction stopped by addition of 0.2 N NaOH (0.25 mL) after 15 min. Release of p-nitrophenol was measured spectrophotometrically at 403 nm. Eadie-Hofstee plots were used to determine the KM(app) (micromolar) and Vmax (micromolar/min/g) of both reactions. The wet weight (g), measured immediately after removal and pooling, was used throughout.
Again, cecal contents from four rats were pooled, weighed, diluted (100 mL, 0.01 M phosphate buffer, pH 7.0) and homogenized. A range of substrate concentrations (0.5-48 micromolar, final volume 2.5 mL) spanning the apparent KM, was used for each reaction. The amount of cecal homogenate used was 0.8 mL. Reactions were run, in duplicate, at 37°C in a shaking water bath. After 15 min, the reactions were stopped by removing aliquots (0.3 mL) and quenching them with MeOH (4.7 mL). […] Again, Eadie-Hofstee plots were used to determine the KM(app) and VMax.

[6] = Rate of hydrolysis in homogenized proximal small intestine contents; conditions: PSI contents, 37 C
physchem = format: physicochemical; conditions: 0.01 m phosphate buffer, pH 7, Log P
Procedure: The partitioning of prodrugs and free steroids between n-octanol and an aqueous phase (0.01 phosphate buffer, pH 7.0) were determined at 37 °C. Both octanol and buffer were saturated with the relevant aqueous or organic phase before use. […] The intitial concentration of steroid was 10 mM dissolved in the organic phase. The amount of glycoside and free steroid in the aqueous phase at equilibrium was measured spectrophotometrically at 239 nm for the dexamethasone and fludrocortisone compounds and 242 nm for the prednisolone and hydrocortisone compounds. The concentration of glycoside or free steroid in the octanol phase was determined by difference.

[7] = 1.0 mM prodrug, release of free steroid by HPLC
[8] = prodrug 0.5-48 micromolar, 0.8 mL cecal homogenate, release of free steroid by HPLC, listed as galactoside 9
[9] = prodrug 0.5-48 micromolar, 0.8 mL cecal homogenate, release of free steroid by HPLC, listed as glucoside 7
[10] = p-nitrophenyl substrate 56-1000 micromolar, 0.04 mL cecal homogenate, p-nitrophenol at 403 nm
[11] = prodrug 0.5-48 micromolar, 0.8 mL cecal homogenate, release of free steroid by HPLC, listed as galactoside 10
[12] = prodrug 0.5-48 micromolar, 0.8 mL cecal homogenate, release of free steroid by HPLC, listed as galactoside 11
[13] = prodrug 0.5-48 micromolar, 0.8 mL cecal homogenate, release of free steroid by HPLC, listed as galactoside 12
[14] = pH 7.0, 1.0 mM p-nitrophenyl substrate, p-nitrophenol at 403 nm
[15] = pH ca 5.0, 1.0 mM p-nitrophenyl substrate, p-nitrophenol at 403 nm
[16] = prodrug 0.5-48 micromolar, 0.8 mL cecal homogenate, release of free steroid by HPLC, listed as glucoside 5

Row | Compound | Sp. act. [2, 7] [nmoles/min/g wet weight] | Tot. act. [2, 7] [µmol/min] | Sp. act. [3, 7] [nmoles/min/g wet weight] | Tot. act. [3, 7] [µmol/min] | Sp. act. [4, 7] [nmoles/min/g wet weight] | Tot. act. [4, 7] [µmol/min] | Sp. act. [6, 7] [nmoles/min/g wet weight] | Tot. act. [6, 7] [µmol/min] | other results
1 | C[C@@H]1C[C@H]2[C@@H]3CCC4=CC(=O)C=C[C@]4(C)[C@@]3(F)[C@@H](O)C[C@]2(C)[C@@]1(O)C(=O)CO [Compound 3, 9 alpha-Fluoro-11 beta, 17 alpha-21 trihydroxy-16 alpha-methyl-3, 20-dioxopregna-1,4-diene, reference compound] | – | – | – | – | – | – | – | – | recovery at 3 h [1]: 3.9%; free steroid recovered in the cecum, as equivalent of the administered dose ([1]; 5 h): 44%
2 | CC1CC2C3CCC4=CC(=O)C=CC4(C)C3(F)C(O)CC2(C)C1(O)C(=O)COC1OC(CO)C(O)C(O)C1O [Compound 9, 9 alpha-Fluoro-11 beta, 17 alpha-dihydroxy-16 alpha-methyl-3, 20-dioxopregna-1,4-dien-21-yl beta-D-galactopyranoside] | 322 | 6.5 | 29.3 | 0.41 | 2.0 | 0.004 | 11.7 | 0.004 | hydrolysis by DSI contents, comparison in words ([3]; homogenates of DSI contents): more resistant to hydrolysis than the other prodrugs; Km [5, 8]: 13.3 µM; Vmax [5, 8]: 3.9 µM/min/g
3 | CC12CCC(=O)C=C1CCC1C3CCC(O)(C(=O)COC4OC(CO)C(O)C(O)C4O)C3(C)CC(O)C12F [Compound 7, 9 alpha-Fluoro-11 beta, 17 alpha-dihydroxy-3, 20-dioxopregna-4-en-21-yl beta-D-glucopyranoside] | 42.0 | 1.4 | 33.0 | 0.43 | 7.7 | 0.14 | 12.3 | 0.08 | hydrolysis by cecal contents, comparison in words [2]: hydrolyzed more slowly than the other glucoside prodrugs; Km [5, 9]: 4.4 µM; Vmax [5, 9]: 2.4 µM/min/g
4 | O=[N+]([O-])c1ccc(O[C@@H]2O[C@H](CO)[C@H](O)[C@H](O)[C@H]2O)cc1 [p-NP-gal, p-nitrophenyl-beta-D-galactoside, reference compound] | – | – | – | – | – | – | – | – | Km [5, 10]: 166 µM; Vmax [5, 10]: 1233 µM/min/g
5 | CC12C=CC(=O)C=C1CCC1C2C(O)CC2(C)C1CCC2(O)C(=O)COC1OC(CO)C(O)C(O)C1O [Compound 10, 11 beta, 17 alpha-dihydroxy-3,20-dioxopregna-l,4-dien-21-yl beta-D-galactopyranoside] | 665 | 13 | 122 | 1.72 | 12.1 | 0.19 | 49.3 | 0.23 | Km [5, 11]: 20 µM; Vmax [5, 11]: 10.3 µM/min/g
6 | O=[N+]([O-])c1ccc(O[C@@H]2O[C@H](CO)[C@@H](O)[C@H](O)[C@H]2O)cc1 [p-NP-glc, p-nitrophenyl-beta-D-glucoside, reference compound] | – | – | – | – | – | – | – | – | Km [5, 10]: 360 µM; Vmax [5, 10]: 697 µM/min/g
7 | CC12CCC(=O)C=C1CCC1C2C(O)CC2(C)C1CCC2(O)C(=O)COC1OC(CO)C(O)C(O)C1O [Compound 11, 11 beta, 17 alpha-Dihydroxy-3, 20-dioxopregna-4-en-21-yl beta-D-galactopyranoside] | 592 | 11.9 | 110 | 1.6 | 12.5 | 0.02 | 42.5 | 0.02 | Km [5, 12]: 16.7 µM; Vmax [5, 12]: 10.2 µM/min/g
8 | C[C@]12CCC(=O)C=C1CC[C@H]1[C@@H]3CC[C@](O)(C(=O)CO)[C@@]3(C)C[C@H](O)[C@@]12F [Compound 8, 9 alpha-Fluoro-11 beta, 17 alpha-21-trihydroxy-3, 20-dioxopregna-4-ene] | – | – | – | – | – | – | – | – | logD at 0.5 h (physchem): 1.73
9 | CC12CCC(=O)C=C1CCC1C3CCC(O)(C(=O)COC4OC(CO)C(O)C(O)C4O)C3(C)CC(O)C12F [Compound 12, 9 alpha-Fluoro-11 beta, 17 alpha-dihydroxy-3, 20-dioxopregna-4-en-21-yl beta-D-galactopyranoside] | 642 | 12.9 | 56.7 | 0.80 | 7.0 | 0.01 | 12.5 | 0.01 | Km [5, 13]: 33.3 µM; Vmax [5, 13]: 20.6 µM/min/g
10 | O=[N+]([O-])c1ccc(O[C@@H]2O[C@H](CO)[C@@H](O[C@@H]3O[C@H](CO)[C@@H](O)[C@H](O)[C@H]3O)[C@H](O)[C@H]2O)cc1 [p-NP-cel, p-nitrophenyl-beta-D-cellobioside, reference compound] | – | – | – | – | – | – | – | – | Sp. act. [2, 14]: 96.5 nmoles/min/g wet weight; Tot. act. [2, 14]: 2.6 µmol/min; Sp. act. [3, 14]: 26.0 nmoles/min/g wet weight; Tot. act. [3, 14]: 0.25 µmol/min; Sp. act. [4, 15]: 34.2 nmoles/min/g wet weight; Tot. act. [4, 15]: 0.35 µmol/min; Sp. act. [6, 14]: 7.2 nmoles/min/g wet weight; Tot. act. [6, 14]: 0.05 µmol/min
11 | CC12CCC(=O)C=C1CCC1C2C(O)CC2(C)C1CCC2(O)C(=O)COC1OC(CO)C(O)C(O)C1O [Compound 5, 11 beta, 17 alpha-Dihydroxy-3, 20-dioxopregna-4-en-21-yl beta-D-glucopyranoside] | 30.5 | 0.76 | 39.2 | 0.70 | 5.5 | 0.09 | 15.9 | 0.10 | hydrolysis by cecal contents, comparison in words [2]: hydrolyzed more slowly than the other glucoside prodrugs; Km [5, 16]: 5.7 µM; Vmax [5, 16]: 2.6 µM/min/g

From patent publication EP0123485A1, “Colon-specific prodrug, the preparation and uses thereof” (priority 1983, dated 1984)
